d = 2'-deoxy (DNA); r = 2'-OH (RNA); {P} = phosphate
How the values were obtained:
Format in all cases: cell-based, human
MDA PCa 2b cells [1] = assay: Matrigel invasion after siRNA knockdown of splice variants; settings: AA PCa cell line MDA PCa 2b
From the text: (§1) The predominant expression of the L variant and very little to no expression of the S variant in the CA PCa cell line is consistent with the CA patient samples (see PIK3CD in FIG. 4). SiRNA-mediated knockdown of the L variant in VCaP cells leads to a decrease in Matrigel invasion and a decrease in proliferation (FIG. 7A). By comparison, the AA PCa cell line MDA PCa 2b expresses both an L and S variant, and knockdown of the L variant leads to an increase in Matrigel invasion and an increase in proliferation (FIG. 7A). Since VCaP cells express very little to no S variant, targeted siRNA-mediated knockdown of this variant leads to no change in Matrigel invasion and proliferation (FIG. 7B). In contrast, targeted knockdown of the S variant in MDA PCa 2b cells leads to decreased Matrigel invasion and decreased proliferation (since the S variant is found almost exclusively in AA patient samples, it is referred to as the ‘AA variant’) (FIG. 7B). […] Analogous findings were obtained in MDA PCa 2b cells when the ratio of the ‘AA variant’ (S or b isoform) was increased over the ‘CA variant’ (L or an isoform) for the FGFR3, TSC2.
(§2) For RASGRP2, the long variant (with exon 10) is common to both AA and CA patients, whereas the short variant (without exon 10) is unique to AA. Targeted knockdown of the long splicing variant in VCaP cells reduced Matrigel invasion and an increase in proliferation (FIG. 8).

VCaP cells [2] = assay: as above; settings: CA PCa cell line VCaP
From the text: as §1, §2

MDA PCa 2b cells [3] = assay: Cell proliferation after siRNA knockdown of splice variants; settings: AA PCa cell line MDA PCa 2b
From the text: as §1, §2

VCaP cells [4] = assay: as above; settings: CA PCa cell line VCaP
From the text: as §1, §2

AKT pathway = AKT pathway phosphorylation after knockdown of PIK3CD long variant
From the text: Activation of AKT is known to promote cell growth and mRNA translation (FIG. 9a). When the expression of PIK3CD “long” variant is knocked down by siRNA targeting of Exon 23 in the VCaP cell line, which only expresses the long variant, there is a decrease of phosphorylation of AKT, compared to nonsense siRNA control, and also decrease of phosphorylation of downstream signaling proteins mTOR and S6 (FIG. 9b). […] In other words, increasing S/L variants proportion in MDA PCa 2b cells activates the AKT pathways.

[5] = VCaP cell line, compared to nonsense siRNA control

With “siPIK3CD-S: siRNA duplex SEQ ID Nos. 12 and 13, sense 5′ UGAGGGAGGCCCUGGAUCGAdTdT 3′; knocks down PIK3CD short variant (antisense UCGAUCCAGGGCCUCCCUCA; sense: RNA, 3' dTdT, backbone not given here; antisense: RNA, 5' {P}, 3' dTdT, backbone not given here)” the Matrigel invasion (MDA PCa 2b cells [1]) was “decreased”, the Matrigel invasion (VCaP cells [2]) was “no change” and the proliferation (MDA PCa 2b cells [3]) was “decreased”. For the same substance, the proliferation (VCaP cells [4]) was “no change”.
For “siPIK3CD-ex23: siRNA duplex SEQ ID Nos. 4 and 5, sense 5′ CCAACAUCCAACUCAACAAdTdT 3′; knocks down PIK3CD long variant (antisense UUGUUGAGUUGGAUGUUGG; sense: RNA, 3' dTdT, backbone not given here; antisense: RNA, 5' {P}, 3' dTdT, backbone not given here)”, the Matrigel invasion (MDA PCa 2b cells [1]) was “increase”, the Matrigel invasion (VCaP cells [2]) was “decrease” and the proliferation (MDA PCa 2b cells [3]) was “increase”. The proliferation (VCaP cells [4]) was “decrease”, the “AKT phosphorylation, both on Thr308 and Ser473” value (AKT pathway; MDA PCa 2b cells) was “markedly increases” and the “phosphorylation of mTOR and S6” value (AKT pathway; MDA PCa 2b cells) was “increases”. The “phosphorylation of AKT” value (AKT pathway; [5]) was “decrease” and the “phosphorylation of downstream signaling proteins mTOR and S6” value (AKT pathway; [5]) was “decrease”.
For “siRNA targeting RASGRP2 exon 10: siRNA duplex SEQ ID Nos. 40 and 41, sense 5′ GUGGAGCACAUCGAGAAGAdTdT 3′; long variant contains exon 10 (sense GUGGAGCACAUCGAGAAGATT; antisense UCUUCUCGAUGUGCUCCAC; sense: sugars from the 5' end r19 d2, backbone not given here; antisense: chemistry not given here)”, the Matrigel invasion (MDA PCa 2b cells [1]) was “opposite effect”, the Matrigel invasion (VCaP cells [2]) was “reduced” and the proliferation (MDA PCa 2b cells [3]) was “opposite effect”. The proliferation (VCaP cells [4]) was “increase”.

— US20140364483A1, “ALTERNATIVE SPLICING VARIANTS OF GENES ASSOCIATED WITH PROSTATE CANCER RISK AND SURVIVAL” (The George Washington University, priority 2011, published 2014)
